melting point: 224 °C
Compound: CN1CCn2c(-c3ccc(F)c(-c4ccc(F)cc4C#N)c3)cnc2C1=O [Example 22, 4,2′-Difluoro-5′-(7-methyl-8-oxo-5,6,7,8-tetrahydroimidazo[1,2-a]pyrazin-3-yl)biphenyl-2-carbonitrile]

Reference: patent publication US7485640B2, “Imidazopyrazinones as GABA-A receptor anxiolytics” (Merck Sharp & Dohme Limited, priority 2002, dated 2009)
